Laboratory results as given in patent US20050186569A1, “Nucleic acid-associated proteins” (priority 2001, published 2005).

How the values were obtained:
[1] = tested on: SEQ ID NO:108 expression in HMVECdNeo cells; assay: Microarray RNA expression of HMVECdNeo cells treated with TNF-α versus untreated cells; type: cell-based, human; details: TNF-α 10 ng/ml for 2, 4, 8, and 24 hours, result at the last three time points, versus untreated (0 hour)
Description: (§1) Total RNA is isolated from tissue samples using the guanidinium thiocyanate method and poly(A)^+ RNA is purified using the oligo-(dT) cellulose method. Each poly(A)^+ RNA sample is reverse transcribed using MMLV reverse-transcriptase, 0.05 pg/μl oligo-(dT) primer (21mer), 1× first strand buffer, 0.03 units/μl RNase inhibitor, 500 μM dATP, 500 μM dGTP, 500 μM dTTP, 40 μM dCTP, 40 μM dCTP-Cy3 (BDS) or dCTP-Cy5 (Amersham Biosciences). The reverse transcription reaction is performed in a […] containing 200 ng poly(A)^+ RNA with GEMBRIGHT kits (Incyte Genomics). Specific control poly(A)^+ RNAs are synthesized by in vitro transcription from non-coding yeast genomic DNA. […]
(§2) Sequences of the present invention are used to generate array elements. […] Array elements are amplified in thirty cycles of PCR from an initial quantity of 1-2 ng to a final quantity greater than 5 μg. […]
(§3) Reporter-labeled hybridization complexes are detected with a microscope equipped with an Innova 70 mixed gas 10 W laser (Coherent, Inc., Santa Clara Calif.) capable of generating spectral lines at 488 nm for excitation of Cy3 and at 632 nm for excitation of Cy5. […]
(§4) A grid is superimposed over the fluorescence signal image such that the signal from each spot is centered in each element of the grid. […]

[2] = tested on: SEQ ID NO:100 expression in HMVECdNeos; assay: Microarray expression analysis of HMVECdNeos treated with TNF-α versus untreated cells; type: cell-based, human; details: HMVECdNeos at 85% confluence treated 1, 2, 4, 8, and 24 hours with TNF-α, versus untreated (0 hour)
Description: as §1, §2, §3, §4

TNF-α was tested, and the “expression of SEQ ID NO:108 (underexpressed)” value [1] was “at least two-fold” and the “expression of SEQ ID NO:100” value [2] was “decreased expression”.
